From PMC5142613 (The Biochemical journal, 2015)
Entries after “also recorded” stand apart in the source; their conditions may differ.

Experiments:
[1] = biological target: ATAD2A bromodomain; assay: DiscoveRx competitive displacement assay; format: binding; conditions: orthogonal assay; as previously described [22]
[2] = biological target: T1, ATAD2A bromodomain (Homo sapiens, UniProt Q6PL18); assay: ATAD2A AlphaScreen assay; format: binding; conditions: for Displacement of histone peptide by small molecule: titration upon H4K5Ac peptide competition, Supplementary Fig. 3b
T1 sequence (Q6PL18 980-1092 limits assumed): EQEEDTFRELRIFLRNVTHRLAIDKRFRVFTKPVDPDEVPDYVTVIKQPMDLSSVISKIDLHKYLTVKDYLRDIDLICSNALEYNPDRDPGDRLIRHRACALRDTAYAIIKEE

[3] = biological target: T1, ATAD2A bromodomain; assay: X-ray co-crystallography of ATAD2A complexes; format: binding; conditions: for Binding site / binding mode in crystal structure: co-crystal structure with ATAD2A bromodomain; for Conformational form of ATAD2A in the complex: co-crystal structure, ZA loop position relative to PDB 3DAI
[4] = test system: ATAD2A bromodomain; conditions: human cells (H3K14ac listed second, "respectively"); ref [7], [30]; cited from earlier work
[5] = test system: ATAD2A bromodomain; conditions: ref [24]; cited from earlier work

Compound: CCOC(=O)Nc1cc(-c2ccc(C)c(NS(C)(=O)=O)c2)nn2c(C)nnc12 [Bromosporine, reference compound]
- Affinity in DiscoveRx competitive displacement assay [1]: high μM
- Displacement of histone peptide by small molecule [2]: displaced

Compound: COC(=O)c1cc(NS(=O)(=O)c2ccccc2)cc(-c2c(C)noc2C)c1 [compound 1, Methyl 3-(3,5-dimethylisoxazol-4-yl)-5-(phenylsulfonamido)benzoate]
- Binding site / binding mode in crystal structure [3]: acetyllysine mimetic binding mode
- Conformational form of ATAD2A in the complex [3]: open form
- Affinity in DiscoveRx competitive displacement assay [1]: high μM
- Displacement of histone peptide by small molecule [2]: displaced

Compound: Cc1noc(C)c1-c1cc(NS(=O)(=O)c2ccccc2)cc(C(=O)O)c1 [compound 2, 3-(3,5-Dimethylisoxazol-4-yl)-5-(phenylsulfonamido)benzoic acid]
- Binding site / binding mode in crystal structure [3]: acetyllysine mimetic binding mode
- Conformational form of ATAD2A in the complex [3]: open form
- Affinity in DiscoveRx competitive displacement assay [1]: high μM
- Binding measured in vitro, compound 2 versus compound 1 ([2]; Fig. 5a, IC50 and Kd (AlphaScreen and DiscoveRx), comparison with compound 1): weaker binding
- Displacement of histone peptide by small molecule [2]: displaced

Compound: ARTKQTARKSTGGK(Ac)APRKQLAGGK [H3K14ac, reference compound]
- Histone interaction by co-immunoprecipitation, human cells [4]: histone interactions have been reported
- Binding site / binding mode in crystal structure [3]: interacts along the end of αC helix, far from the acetyllysine binding site; also recorded: binds non-specifically
- Interaction in panning of histone peptide panels by peptide array [5]: have not been confirmed
- Response of acetylated histone peptide in AlphaScreen panel ([2]; direct binding of biotinylated peptide to His-ATAD2A, chemiluminescent readout): did not respond
